Test results published in ChEMBL document CHEMBL1201862, “PubChem BioAssay data set” (2004).
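Compound exposure: 48 hours, 5 concentrations, 96-well plates. At the GI50, growth is halved.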 Calls of active or inactive are those of the source. No stated cut-off is given here; in the data, active = GI50 up to about 1.1 µM and inactive = higher.

Key:
Assay in all cases: DTP human tumour cell line panel, 48 h
786-0 = test system: 786-0
UACC-62 = test system: UACC-62
NCI-H226 = test system: NCI-H226
A498 = test system: A498
NCI-H23 = test system: NCI-H23
OVCAR-4 = test system: OVCAR-4
LOX IMVI = test system: LOX IMVI
HCC 2998 = test system: HCC 2998
U-251 = test system: U-251
HOP-62 = test system: HOP-62
SNB-19 = test system: SNB-19
SK-OV-3 = test system: SK-OV-3
MDA-MB-435 = test system: MDA-MB-435
Malme-3M = test system: Malme-3M
NCI/ADR-RES = test system: NCI/ADR-RES
OVCAR-3 = test system: OVCAR-3
CAKI-1 = test system: CAKI-1
EKVX = test system: EKVX
HT-29 = test system: HT-29

Structure (SMILES)	GI50 (786-0)	GI50 (UACC-62)	GI50 (NCI-H226)	GI50 (A498)	GI50 (NCI-H23)	GI50 (OVCAR-4)	GI50 (LOX IMVI)	GI50 (HCC 2998)	GI50 (U-251)	GI50 (HOP-62)	GI50 (SNB-19)	GI50 (SK-OV-3)	GI50 (MDA-MB-435)	GI50 (Malme-3M)	GI50 (NCI/ADR-RES)	GI50 (OVCAR-3)	GI50 (CAKI-1)	GI50 (EKVX)	GI50 (HT-29)
Cc1noc(NC(=O)Nc2ccccc2F)c1C#N	7.69 µM (inactive)	> 27.4 µM (inactive)	> 100 µM (inactive)	> 35 µM (inactive)	> 81.3 µM (inactive)	69.8 µM (inactive)	58.5 µM (inactive)	2.12 µM (inactive)	21.5 µM (inactive)	22.3 µM (inactive)	> 35 µM (inactive)	> 100 µM (inactive)	> 100 µM (inactive)	28.8 µM (inactive)	> 100 µM (inactive)	64.3 µM (inactive)	> 100 µM (inactive)	11.6 µM (inactive)	
Cc1cc(-c2nc3ccc(F)cc3s2)ccc1NC(=O)C(N)CCCCN (configuration not stated)	3.21 µM (inactive)	10.8 µM (inactive)	2.44 µM (inactive)	11 µM (inactive)	4.73 µM (inactive)	8.28 µM (inactive)	2.3 µM (inactive)	1.26 µM (inactive)	2.11 µM (inactive)	3.22 µM (inactive)	10.2 µM (inactive)	13.3 µM (inactive)	2.17 µM (inactive)	18.2 µM (inactive)	15.1 µM (inactive)	7.83 µM (inactive)	9.64 µM (inactive)	12.6 µM (inactive)	3.54 µM (inactive)
CN1C(=O)c2ccccc2C(O)(c2ccccc2)C1(O)c1ccccc1 (configuration not stated)	> 100 µM (inactive)	64.4 µM (inactive)	> 100 µM (inactive)	> 100 µM (inactive)	81.8 µM (inactive)	72.8 µM (inactive)	> 100 µM (inactive)	87.9 µM (inactive)	> 100 µM (inactive)	> 100 µM (inactive)	> 100 µM (inactive)	52.4 µM (inactive)	> 100 µM (inactive)	> 100 µM (inactive)	> 100 µM (inactive)	> 100 µM (inactive)	43.4 µM (inactive)	81.5 µM (inactive)	> 100 µM (inactive)
CC(=O)NC1C(OCC(=O)NCCNc2ccc([N+](=O)[O-])c3[nH]c4ccccc4c(=O)c23)C(O)C(CO)OC1(C)OCc1ccccc1 (configuration not stated)	> 100 µM (inactive)	> 100 µM (inactive)	> 100 µM (inactive)	> 100 µM (inactive)	> 100 µM (inactive)	> 100 µM (inactive)	> 100 µM (inactive)	> 100 µM (inactive)	> 100 µM (inactive)	> 100 µM (inactive)	> 100 µM (inactive)	> 100 µM (inactive)	> 100 µM (inactive)	> 10 µM (inactive)	> 100 µM (inactive)	> 100 µM (inactive)	> 100 µM (inactive)	> 100 µM (inactive)	> 100 µM (inactive)
CC(C)Oc1cccc(N2C(NCCc3c[nH]c4ccccc34)=Nc3ccncc3S2(=O)=O)c1	2.09 µM (inactive)	31 µM (inactive)	> 100 µM (inactive)	9.31 µM (inactive)	33.1 µM (inactive)	8 µM (inactive)	52.1 µM (inactive)	24.4 µM (inactive)	17.9 µM (inactive)	> 100 µM (inactive)	> 100 µM (inactive)	> 100 µM (inactive)	25.8 µM (inactive)	32.4 µM (inactive)	29.9 µM (inactive)	11.7 µM (inactive)	42.1 µM (inactive)	72.8 µM (inactive)	5.01 µM (inactive)
O=Cc1ccc2c(c1)CC1(C2)Cc2ccc3c(c2C1)CCC3 (configuration not stated)	14.4 µM (inactive)	6.56 µM (inactive)	16.3 µM (inactive)	23.8 µM (inactive)	14.6 µM (inactive)	10.8 µM (inactive)	4.73 µM (inactive)	24.3 µM (inactive)	8.51 µM (inactive)	9.4 µM (inactive)	7.08 µM (inactive)	18.2 µM (inactive)	2.46 µM (inactive)	6.22 µM (inactive)	7.19 µM (inactive)	6.68 µM (inactive)	21.1 µM (inactive)	24.3 µM (inactive)	19 µM (inactive)
COc1ccc(/N=N/C(=N/NC(=O)c2ccc(C)cc2)c2ccc(N(CCC#N)CCC#N)cc2OC)cc1	> 100 µM (inactive)	> 100 µM (inactive)	> 100 µM (inactive)	> 100 µM (inactive)	> 100 µM (inactive)	> 100 µM (inactive)	> 100 µM (inactive)	> 100 µM (inactive)	> 100 µM (inactive)	> 100 µM (inactive)	> 100 µM (inactive)	> 100 µM (inactive)	> 100 µM (inactive)	> 100 µM (inactive)	> 100 µM (inactive)	> 100 µM (inactive)	> 100 µM (inactive)	> 100 µM (inactive)	> 100 µM (inactive)
COC(=O)c1cc2c(cc1CC1Cc3cc4c(cc3C1=O)CCC4)CCC2 (configuration not stated)	83.8 µM (inactive)	47.2 µM (inactive)	56.6 µM (inactive)	56 µM (inactive)	41.6 µM (inactive)	50.4 µM (inactive)	41.4 µM (inactive)	43.7 µM (inactive)	46 µM (inactive)	> 100 µM (inactive)	> 100 µM (inactive)	70.3 µM (inactive)	24.7 µM (inactive)	53 µM (inactive)	38.1 µM (inactive)	57.4 µM (inactive)	> 100 µM (inactive)	67.5 µM (inactive)	31.7 µM (inactive)
CCOC(=O)/C=C(\C(=O)OCC)n1cc(C)c(=O)n(Cc2cn(CCCCOC(C)=O)nn2)c1=O	4.43 µM (inactive)	15.9 µM (inactive)	11.3 µM (inactive)	18.9 µM (inactive)	14.2 µM (inactive)	23.2 µM (inactive)	6.62 µM (inactive)	18.3 µM (inactive)	15.1 µM (inactive)	18.4 µM (inactive)	20 µM (inactive)	32.4 µM (inactive)	9.95 µM (inactive)	2.04 µM (inactive)	19.6 µM (inactive)	13.3 µM (inactive)	3.92 µM (inactive)	9.04 µM (inactive)	8.32 µM (inactive)
CCOC(=O)CNC1=Nc2ccccc2C(=O)N2CSCC12 (configuration not stated)	> 100 µM (inactive)	> 100 µM (inactive)	> 100 µM (inactive)	> 100 µM (inactive)		> 100 µM (inactive)	> 100 µM (inactive)	> 100 µM (inactive)	> 100 µM (inactive)	> 100 µM (inactive)	> 100 µM (inactive)	> 100 µM (inactive)	> 100 µM (inactive)	> 100 µM (inactive)	> 100 µM (inactive)	> 100 µM (inactive)	> 100 µM (inactive)	> 100 µM (inactive)	> 100 µM (inactive)
CN(C)CCN1Nc2c3ccccc3nc3c(C(=O)NCCCN(C)CCCNC(=O)c4ccc5c6c(c7ccccc7nc46)NN5CCN(C)C)ccc1c23	< 0.01 µM (active)	0.0173 µM (active)	0.0187 µM (active)	0.0659 µM (active)	0.0202 µM (active)	0.0266 µM (active)	< 0.01 µM (active)	< 0.01 µM (active)	< 0.01 µM (active)	0.0104 µM (active)	< 0.01 µM (active)	< 0.01 µM (active)	< 0.01 µM (active)	< 0.01 µM (active)	1.36 µM (inactive)	0.0333 µM (active)	0.199 µM (active)	0.0504 µM (active)	< 0.01 µM (active)
